Data from ChEMBL document CHEMBL3885861, “Open TG-GATES”.

Species: Rattus norvegicus
Assay: Open TG-GATES - Regimen: Single
Format: toxicity, organism-based, Sprague-Dawley
Parameters: regimen Single, gender Male, age 6 weeks
Details: in vivo, po, 0 mg/kg, route gavage, dose level Control; for APTT / Bas / Eos / Fbg / Hb / Ht / Lym / MCH / MCHC / MCV / Mono / Neu / PT / Plat / RBC / Ret / WBC: tissue Blood; for KIDNEY_L / KIDNEY_R / KIDNEY_TOTAL: tissue Kidney; for LIVER: tissue Liver; for A/G / ALP / ALT / AST / BUN / CRE / Ca / Cl / DBIL / GLC / IP / K / LDH / Na / PL / RALB / TBIL / TC / TG / TP / gamma-GTP: tissue Plasma

In the case of `CN1C(C(=O)Nc2ccccn2)=C(O)c2sc(Cl)cc2S1(=O)=O` [LORNOXICAM], the TERMINAL_BW (3 h) is reported as 223 g, the APTT (3 h) is reported as 20 s and the Bas (3 h) is reported as 1%. For the same molecule, the Eos (3 h) was 1.4%, the Fbg (3 h) was 213.2 mg/dL and the Hb (3 h) was 13.4 g/dL. It also gave a Ht (3 h) of 39.7%, a Lym (3 h) of 78.8% and an MCH (3 h) of 21 pg. It also gave an MCHC (3 h) of 33.8%, an MCV (3 h) of 62.2 fL and a Mono (3 h) of 2.8%. It also gave a Neu (3 h) of 16.4%, a PT (3 h) of 11.9 s and a Plat (3 h) of 135.7 x10_4/uL. For the same molecule, the RBC (3 h) was 638 x10_4/ul, the Ret (3 h) was 6.8% and the WBC (3 h) was 93 x10_2/uL. The KIDNEY_L (3 h) was 1 g, the KIDNEY_R (3 h) was 1 g and the KIDNEY_TOTAL (3 h) was 2 g. For the same molecule, the LIVER (3 h) was 10.1 g, the A/G (3 h) was 1.7 and the ALP (3 h) was 1010.4 IU/L. It also gave an ALT (3 h) of 36.2 IU/L, an AST (3 h) of 73 IU/L and a BUN (3 h) of 11.8 mg/dL. For the same molecule, the CRE (3 h) was 0.4 mg/dL, the Ca (3 h) was 10.5 mg/dL and the Cl (3 h) was 103.4 meq/L. It also gave a DBIL (3 h) of 0.076 mg/dL, a GLC (3 h) of 197.2 mg/dL and an IP (3 h) of 8.6 mg/dL. For the same molecule, the K (3 h) was 3.7 meq/L, the LDH (3 h) was 168 IU/L and the Na (3 h) was 141.4 meq/L. It also gave a PL (3 h) of 133.4 mg/dL, an RALB (3 h) of 3.5 g/dL and a TBIL (3 h) of 0.1 mg/dL. The TC (3 h) was 71.2 mg/dL, the TG (3 h) was 80 mg/dL and the TP (3 h) was 5.5 g/dL. The gamma-GTP (3 h) was 1.4 IU/L, the TERMINAL_BW (6 h) was 219.8 g and the APTT (6 h) was 19.8 s. For the same molecule, the Bas (6 h) was 0.8%, the Eos (6 h) was 1% and the Fbg (6 h) was 221.2 mg/dL. For the same molecule, the Hb (6 h) was 13.2 g/dL, the Ht (6 h) was 39.3% and the Lym (6 h) was 81.2%. The MCH (6 h) was 20.9 pg, the MCHC (6 h) was 33.6% and the MCV (6 h) was 62.1 fL. It also gave a Mono (6 h) of 2.6%, a Neu (6 h) of 14.2% and a PT (6 h) of 12 s. The Plat (6 h) was 119.7 x10_4/uL, the RBC (6 h) was 632.4 x10_4/ul and the Ret (6 h) was 7.2%. The WBC (6 h) was 109.1 x10_2/uL, the KIDNEY_L (6 h) was 0.9 g and the KIDNEY_R (6 h) was 1 g. For the same molecule, the KIDNEY_TOTAL (6 h) was 1.9 g, the LIVER (6 h) was 9.6 g and the A/G (6 h) was 1.6. The ALP (6 h) was 765.4 IU/L, the ALT (6 h) was 33.4 IU/L and the AST (6 h) was 68.8 IU/L. It also gave a BUN (6 h) of 11 mg/dL, a CRE (6 h) of 0.4 mg/dL and a Ca (6 h) of 10.4 mg/dL. For the same molecule, the Cl (6 h) was 103 meq/L, the DBIL (6 h) was 0.066 mg/dL and the GLC (6 h) was 196.8 mg/dL. The IP (6 h) was 9.1 mg/dL, the K (6 h) was 3.9 meq/L and the LDH (6 h) was 209.2 IU/L. It also gave a Na (6 h) of 140.8 meq/L, a PL (6 h) of 146 mg/dL and an RALB (6 h) of 3.4 g/dL. It also gave a TBIL (6 h) of 0.1 mg/dL, a TC (6 h) of 84.8 mg/dL and a TG (6 h) of 64.8 mg/dL. The TP (6 h) was 5.6 g/dL, the gamma-GTP (6 h) was 0.8 IU/L and the TERMINAL_BW (9 h) was 218.6 g. The APTT (9 h) was 20.3 s, the Bas (9 h) was 0.8% and the Eos (9 h) was 0.8%. It also gave a Fbg (9 h) of 230.6 mg/dL, a Hb (9 h) of 13.3 g/dL and a Ht (9 h) of 39.8%. For the same molecule, the Lym (9 h) was 74.4%, the MCH (9 h) was 20.9 pg and the MCHC (9 h) was 33.4%. The MCV (9 h) was 62.7 fL, the Mono (9 h) was 3.2% and the Neu (9 h) was 20.4%. The PT (9 h) was 12.5 s, the Plat (9 h) was 119.2 x10_4/uL and the RBC (9 h) was 634.2 x10_4/ul. It also gave a Ret (9 h) of 7.6%, a WBC (9 h) of 126.9 x10_2/uL and a KIDNEY_L (9 h) of 1 g. It also gave a KIDNEY_R (9 h) of 1 g, a KIDNEY_TOTAL (9 h) of 1.9 g and an LIVER (9 h) of 9.3 g. For the same molecule, the A/G (9 h) was 1.7, the ALP (9 h) was 766.8 IU/L and the ALT (9 h) was 33.2 IU/L. It also gave an AST (9 h) of 65.4 IU/L, a BUN (9 h) of 9.8 mg/dL and a CRE (9 h) of 0.3 mg/dL. The Ca (9 h) was 10.5 mg/dL, the Cl (9 h) was 103.6 meq/L and the DBIL (9 h) was 0.076 mg/dL. For the same molecule, the GLC (9 h) was 197.8 mg/dL, the IP (9 h) was 9.6 mg/dL and the K (9 h) was 3.8 meq/L. For the same molecule, the LDH (9 h) was 162.2 IU/L, the Na (9 h) was 142.2 meq/L and the PL (9 h) was 136.8 mg/dL. For the same molecule, the RALB (9 h) was 3.5 g/dL, the TBIL (9 h) was 0.1 mg/dL and the TC (9 h) was 75.2 mg/dL. The TG (9 h) was 60.6 mg/dL, the TP (9 h) was 5.6 g/dL and the gamma-GTP (9 h) was 1.2 IU/L. The TERMINAL_BW (24 h) was 238.4 g, the APTT (24 h) was 19.9 s and the Bas (24 h) was 0.2%. The Eos (24 h) was 1%, the Fbg (24 h) was 225.8 mg/dL and the Hb (24 h) was 13.5 g/dL. It also gave a Ht (24 h) of 40.7%, a Lym (24 h) of 80% and an MCH (24 h) of 20.9 pg. It also gave an MCHC (24 h) of 33.3%, an MCV (24 h) of 62.6 fL and a Mono (24 h) of 3.2%. For the same molecule, the Neu (24 h) was 15.2%, the PT (24 h) was 11.6 s and the Plat (24 h) was 133.9 x10_4/uL. It also gave an RBC (24 h) of 649.4 x10_4/ul, a Ret (24 h) of 6.8% and a WBC (24 h) of 101.7 x10_2/uL. For the same molecule, the KIDNEY_L (24 h) was 1 g, the KIDNEY_R (24 h) was 1 g and the KIDNEY_TOTAL (24 h) was 2 g. The LIVER (24 h) was 11.3 g, the A/G (24 h) was 1.6 and the ALP (24 h) was 874.6 IU/L. It also gave an ALT (24 h) of 35.2 IU/L, an AST (24 h) of 65.8 IU/L and a BUN (24 h) of 14.8 mg/dL. It also gave a CRE (24 h) of 0.4 mg/dL, a Ca (24 h) of 10.8 mg/dL and a Cl (24 h) of 103.8 meq/L. The DBIL (24 h) was 0.1 mg/dL, the GLC (24 h) was 218 mg/dL and the IP (24 h) was 7.3 mg/dL. The K (24 h) was 4 meq/L, the LDH (24 h) was 177.6 IU/L and the Na (24 h) was 141.4 meq/L. It also gave a PL (24 h) of 138.4 mg/dL, an RALB (24 h) of 3.5 g/dL and a TBIL (24 h) of 0.2 mg/dL. For the same molecule, the TC (24 h) was 69.2 mg/dL, the TG (24 h) was 101.2 mg/dL and the TP (24 h) was 5.6 g/dL. The gamma-GTP (24 h) was 1 IU/L.
